Test results taken from article PMC8343220, “The selectivity of α‐adrenoceptor agonists for the human α1A, α1B, and α1D‐adrenoceptors” (Pharmacology Research & Perspectives, 2021).

What was measured:
[1] = molecular target: T1, human α1B‐adrenoceptor (Homo sapiens, UniProt P35368); test: ^3H‐prazosin whole‐cell radioligand binding, CHO‐α1B cells; conditions: CHO‐α1B cells; for IC50: printed as IC50> log value
T1 construct: expressed in transfected cells; host or cells: CHO-K1
T1 sequence (P35368 1-520): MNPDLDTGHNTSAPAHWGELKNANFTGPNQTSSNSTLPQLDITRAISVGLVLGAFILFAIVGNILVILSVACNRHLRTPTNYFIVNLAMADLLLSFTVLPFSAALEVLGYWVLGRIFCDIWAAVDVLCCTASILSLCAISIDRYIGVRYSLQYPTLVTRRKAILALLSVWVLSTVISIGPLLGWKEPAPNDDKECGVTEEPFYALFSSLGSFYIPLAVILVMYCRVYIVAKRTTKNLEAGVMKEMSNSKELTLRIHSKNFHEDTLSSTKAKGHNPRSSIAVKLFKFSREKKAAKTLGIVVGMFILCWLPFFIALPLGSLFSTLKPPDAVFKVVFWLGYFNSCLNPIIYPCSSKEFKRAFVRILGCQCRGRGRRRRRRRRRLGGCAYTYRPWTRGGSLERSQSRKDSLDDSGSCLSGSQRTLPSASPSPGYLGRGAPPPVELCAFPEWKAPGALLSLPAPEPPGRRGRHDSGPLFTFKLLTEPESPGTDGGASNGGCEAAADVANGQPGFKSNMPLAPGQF

[2] = molecular target: T2, human α1A‐adrenoceptor (Homo sapiens, UniProt P35348); test: Intracellular free calcium mobilization, CHO‐α1A cells; format: cell-based; conditions: CHO‐α1A cells; for Log efficacy ratio KD /EC50: binding KD and calcium EC50; for EC50: given as log EC50 (negative), read-out: Intracellular calcium release Log EC50 (converted); for Intracellular calcium release % ionomycin: maximal response as % of 10 µM ionomycin
T2 construct: expressed in transfected cells; host or cells: CHO-K1
T2 sequence (P35348 1-466): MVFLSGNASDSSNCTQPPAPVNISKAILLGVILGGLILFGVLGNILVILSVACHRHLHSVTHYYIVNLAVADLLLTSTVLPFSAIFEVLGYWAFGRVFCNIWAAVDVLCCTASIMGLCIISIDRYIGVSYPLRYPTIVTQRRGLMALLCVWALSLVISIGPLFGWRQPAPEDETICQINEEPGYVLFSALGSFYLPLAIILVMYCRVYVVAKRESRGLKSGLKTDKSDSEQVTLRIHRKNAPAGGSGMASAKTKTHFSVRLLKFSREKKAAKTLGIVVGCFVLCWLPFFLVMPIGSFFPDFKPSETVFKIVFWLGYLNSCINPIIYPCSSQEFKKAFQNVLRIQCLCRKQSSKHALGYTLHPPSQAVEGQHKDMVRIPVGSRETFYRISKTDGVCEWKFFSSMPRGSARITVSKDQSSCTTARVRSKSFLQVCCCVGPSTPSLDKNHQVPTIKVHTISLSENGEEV

[3] = molecular target: T1, human α1B‐adrenoceptor; test: Intracellular free calcium mobilization, CHO‐α1B cells; format: cell-based; conditions: CHO‐α1B cells; for EC50: given as log EC50 (negative numbers), read-out: Intracellular calcium release Log EC50 (converted); for Log efficacy ratio KD /EC50: intrinsic efficacy ratio, KD from binding / EC50 calcium; for Intracellular calcium release % ionomycin: maximal response as % of 10 µM ionomycin response
[4] = molecular target: T3, human α1D‐adrenoceptor (full length) (Homo sapiens, UniProt P25100); test: Intracellular free calcium mobilization, CHO‐α1D cells; format: cell-based; conditions: CHO‐α1D cells; for Log efficacy ratio KD /EC50: intrinsic efficacy ratio, binding KD / calcium EC50; for EC50: log values given negative, read-out: Intracellular calcium release Log EC50 (converted); for Intracellular calcium release % ionomycin: maximal response as % of 10 µM ionomycin
T3 construct: human α1D‐adrenoceptor (full length) were used; expressed in transfected cells; host or cells: CHO-K1
T3 sequence (P25100 1-572): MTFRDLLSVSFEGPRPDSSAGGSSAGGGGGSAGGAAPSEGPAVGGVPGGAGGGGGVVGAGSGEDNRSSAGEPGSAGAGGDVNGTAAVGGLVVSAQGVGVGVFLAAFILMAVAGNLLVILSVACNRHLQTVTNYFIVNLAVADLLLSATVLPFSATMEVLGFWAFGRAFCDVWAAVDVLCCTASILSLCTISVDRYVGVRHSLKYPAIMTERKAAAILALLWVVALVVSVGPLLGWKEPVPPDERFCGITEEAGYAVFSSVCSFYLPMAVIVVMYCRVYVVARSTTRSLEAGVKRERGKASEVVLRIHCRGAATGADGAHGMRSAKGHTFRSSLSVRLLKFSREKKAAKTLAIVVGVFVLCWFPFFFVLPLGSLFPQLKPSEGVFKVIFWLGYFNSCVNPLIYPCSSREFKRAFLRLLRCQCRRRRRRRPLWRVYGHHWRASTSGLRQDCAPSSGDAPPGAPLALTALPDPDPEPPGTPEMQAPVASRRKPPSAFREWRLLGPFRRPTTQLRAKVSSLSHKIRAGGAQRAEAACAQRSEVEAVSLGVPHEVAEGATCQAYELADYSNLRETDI

[5] = molecular target: T2, human α1A‐adrenoceptor; test: ERK1/2‐phosphorylation (Surefire Alphascreen), CHO‐α1A cells; format: cell-based; conditions: CHO‐α1A cells, ^a bi‐phasic: initial stimulatory part; for EC50: 2–4 min, ^b also active in parent CHO cells, read-out: ERK1/2‐phosphorylation Log EC50 (converted); for ERK1/2‐phosphorylation % PDBu: % of 10 µM PDBu
[6] = molecular target: T1, human α1B‐adrenoceptor; test: ERK1/2‐phosphorylation (Surefire Alphascreen), CHO‐α1B cells; format: cell-based; conditions: CHO‐α1B cells, for bi‐phasic responses the initial stimulatory part; for EC50: read-out: ERK1/2‐phosphorylation Log EC50 (converted); for ERK1/2‐phosphorylation % PDBu: maximal response as % PDBu response
[7] = molecular target: T3, human α1D‐adrenoceptor (full length); test: ERK1/2‐phosphorylation (Surefire Alphascreen), CHO‐α1D cells; format: cell-based; conditions: CHO‐α1D cells; for EC50: log values given negative, read-out: ERK1/2‐phosphorylation Log EC50 (converted); for ERK1/2‐phosphorylation % PDBu: maximal response as % of PDBu
[8] = system: parental CHO cell line without any transfected receptors; test: ERK1/2‐phosphorylation, parent CHO cells without transfected receptors; format: cell-based, Chinese hamster; conditions: for ERK1/2-phosphorylation % PDBu / ERK1/2-phosphorylation Log EC50: CHO cells without transfected receptors, mean ± s.e.m.; for ERK1/2-phosphorylation % PDBu: maximal response as % of PDBu (10μM) response
[9] = molecular target: T2, human α1A‐adrenoceptor; test: ^3H‐cAMP accumulation, CHO‐α1A cells; format: cell-based; conditions: CHO‐α1A cells; for cAMP accumulation % forskolin at 100 µM: response at 100 μM ligand, no EC50 obtained
[10] = molecular target: T1, human α1B‐adrenoceptor; test: ^3H‐cAMP accumulation, CHO‐α1B cells; format: cell-based; conditions: CHO‐α1B cells; for cAMP accumulation % forskolin at 100 µM: response at 100 µM ligand (no EC50 given)
[11] = molecular target: T1, human α1B‐adrenoceptor; test: ^3H‐cAMP accumulation in the presence of 10 μM forskolin, CHO‐α1B cells; format: cell-based; conditions: CHO‐α1B cells; for cAMP accumulation (in presence of forskolin) Fold increase: fold increase of the forskolin response; for EC50: in presence of forskolin, read-out: cAMP accumulation (in presence of forskolin) Log EC50 (converted)
[12] = molecular target: T3, human α1D‐adrenoceptor (full length); test: ^3H‐cAMP accumulation in the presence of 10 μM forskolin, CHO‐α1D cells; format: cell-based; conditions: CHO‐α1D cells; for cAMP (in presence of forskolin) Fold increase: fold increase of the forskolin response; for EC50: in presence of forskolin, log values given negative

Structure (SMILES) | IC50 [1] | Log efficacy ratio KD /EC50 [2] | EC50 [2] | Intracellular calcium release % ionomycin [2] | EC50 [3] | Log efficacy ratio KD /EC50 [3] | Intracellular calcium release % ionomycin [3] | Log efficacy ratio KD /EC50 [4] | EC50 [4] | Intracellular calcium release % ionomycin [4] | EC50 [5] | ERK1/2‐phosphorylation % PDBu [5] | EC50 [6] | ERK1/2‐phosphorylation % PDBu [6] | EC50 [7] | ERK1/2‐phosphorylation % PDBu [7] | cAMP accumulation (in presence of forskolin) Fold increase [11] | EC50 [11] | cAMP (in presence of forskolin) Fold increase [12] | EC50 [12] | also measured
CCNCC(O)c1cccc(O)c1 (stereo not shown) [Etilefrine] | > 1000 µM | 3.12 | 0.0776 µM | 58.1 ± 2.1% | 0.0138 µM | >4.86 | 61.1 ± 2.1% | 1.42 | 1.35 µM | 13.7 ± 1.8% | 0.145 µM | 72.8 ± 7.0% | 0.302 µM | 78.8 ± 6.1% | 1.51 µM | 16.8 ± 2.0% | 2.47 ± 0.09 fold | 0.661 µM | 1.18 ± 0.04 | 0.759 µM | ERK1/2-phosphorylation % PDBu [8]: No response; ERK1/2-phosphorylation Log EC50 [8]: No response; cAMP accumulation % forskolin at 100 µM [9]: 82.7 ± 5.5%; cAMP accumulation % forskolin at 100 µM [10]: 73.4 ± 7.1%
N=C(N)NC(=O)Cc1c(Cl)cccc1Cl [Guanfacine] | – | 1.95 | 0.0525 µM | 56.8 ± 2.2% | 0.0269 µM | 3.70 | 59.0 ± 2.4% | 0.53 | 3.47 µM | 28.6 ± 2.0% | 0.0347 µM | 87.4 ± 2.3% | 0.195 µM | 97.4 ± 2.7% | 6.92 µM | 16.1 ± 4.0% | 2.67 ± 0.18 fold | 0.324 µM | 1.20 ± 0.7 | 0.229 µM | Kd ([1]; given as log KD (negative), mean ± SEM): 135 µM; Emax at 100 µM ([8]; Cricetulus griseus, CHO, read-out: ERK1/2-phosphorylation % PDBu at 100μM): 2.5 ± 1.7%; EC50 ([9]; 5 h, read-out: cAMP accumulation Log EC50 (converted)): 2.88 µM; cAMP accumulation % forskolin ([9]; % of 10 µM forskolin response): 41.1 ± 2.3%; cAMP accumulation % forskolin ([10]; % forskolin maximum response): 39.0 ± 5.8%; EC50 ([10]; read-out: cAMP accumulation Log EC50 (converted)): 1.62 µM
C[C@H](N)[C@H](O)c1cccc(O)c1 [Metaraminol] | > 1000 µM | 3.14 | 0.0617 µM | 66.9 ± 3.2% | 0.112 µM | >3.95 | 60.1 ± 3.1% | 1.87 | 0.759 µM | 23.1 ± 3.8% | 0.0977 µM | 83.9 ± 4.1% | 1.45 µM | 92.2 ± 3.9% | 2.69 µM | 20.5 ± 3.0% | 2.58 ± 0.07 fold | 1.48 µM | 1.19 ± 0.04 | 0.324 µM | ERK1/2-phosphorylation % PDBu [8]: No response; ERK1/2-phosphorylation Log EC50 [8]: No response; cAMP accumulation % forskolin at 100 µM [9]: 122.7 ± 9.8%; cAMP accumulation % forskolin at 100 µM [10]: 42.0 ± 5.1%
